The record followed here is patent US8338441B2, “Inhibitors of human immunodeficiency virus replication” (priority 2009, dated 2012).

pEC50: −log10 of the molar value.

The subject of this test is HIV-1 NL4.3 strain. The experiment in a line: C8166 HIV-1 Luciferase Assay (EC50). The class given is cell-based. Conditions: Human immunodeficiency virus 1, C8166, 72 h, read-out: Antiviral potency EC50. An excerpt:
C8166 HIV-1 Luciferase Assay (EC50)
C8166 cells are derived from a human T-lymphotrophic virus type 1 immortalized but nonexpressing line of cord blood lymphocytes (obtained from J. Sullivan and originally produced in the laboratory of R. Gallo, Virology 1983; 129: 51-64) and are highly permissive to HIV-1 infection. The pGL3 Basic LTR/TAR plasmid is made by introducing the HIV-1 HxB2 LTR sequence from nucleotide −138 to +80 (Sca1-HindIII) upstream of the luciferase gene in the pGL3 Basic Vector (a promoterless luciferase expression vector from Promega catalogue # E1751) with the gene for blasticidine resistance cloned in. The reporter cells are made by electroporating C8166 cells with pGL3 Basic LTR/TAR and selecting positive clones with blasticidine. Clone C8166-LTRIuc #A8-F5-G7 is selected by 3 consecutive rounds of limiting dilution under blasticidine selection. Cultures are maintained in complete media (consisting of: Roswell Park Memorial Institute medium (RPMI) 1640+10% FBS+10^−5 M β-mercaptoethanol+10 μg/ml gentamycin) with 5 μg/ml blasticidine, however, blasticidine selection is removed from the cells before performing the viral replication assay.
Luciferase Assay Protocol
Serial dilutions of HIV-1 inhibitor compounds are prepared in complete media from 10 mM DMSO stock solutions. Eleven serial dilutions of 2.5× are made at 8× desired final concentration in a 1 mL deep well titer plate (96 wells). The 12th well contains complete media with no inhibitor and serves as the positive control. All samples contain the same concentration of DMSO (≦0.1% DMSO). A 25 μL aliquot of inhibitor is added, to triplicate wells, of a 96 well tissue culture treated clear view black microtiter plate (Corning Costar catalogue # 3904). The total volume per well is 200 μL of media containing cells and inhibitor. The last row is reserved for uninfected C8166 LTRluc cells to serve as the background blank control and the first row is media alone.
C8166 LTRluc cells are counted and placed in a minimal volume of complete RPMI 1640 in a tissue culture flask (ex. 30×10^6 cells in 10 mL media/25 cm^2 flask). Cells are infected with HIV-1 or virus with variant integrase generated as described below at a […] (moi) of 0.005. Cells are incubated for 1.5 hours at 37° C. on a rotating rack in a 5% CO2 incubator and re-suspended in complete RPMI to give a final concentration of 25,000-cells/175 μL. 175 μL of cell mix is added to wells of a 96 well microtiter plate containing 25 μL 8× inhibitors. 25,000 uninfected C8166-LTRluc cells/well in 200 μL complete RPMI are added to the last row for background control. Cells are incubated at 37° C. in 5% CO2 incubator for 3 days.
50 μL Steady Glo (luciferase substrate T1/2=5 hours Promega catalogue # E2520) is added to each well of the 96 well plate. The relative light units (RLU) of luciferase is determined using the LUMIstar Galaxy luminometer (BMG LabTechnologies). Plates are read from the bottom for 2 seconds per well with a gain of 240.
The level of inhibition (% inhibition) of each well containing inhibitor is calculated as follows: […]
The calculated % inhibition values are used to determine EC50, slope factor (n) and maximum inhibition (Imax) by the non-linear regression routine NLIN procedure of SAS using the following equation: […]
One may read the pEC50 as −log10 of the EC50, conventionally taken in molar units. As to `Cc1nc(NC(=O)c2ccc(Cl)c(F)c2)c(C)c(-c2ccc(Cl)cc2)c1[C@H](OC(C)(C)C)C(=O)O` [compound 1466], the pEC50 was 8.31. `Cc1nc(C(=O)N[C@H]2CC[C@H](C)CC2)c(C)c(-c2ccccc2Cl)c1[C@H](OC(C)(C)C)C(=O)O` [compound 1455]: the pEC50 was 8.40.

Regarding `Cc1nc(-c2cccc(-c3cncnc3)c2)c(C)c(-c2ccc3c(c2)CCCO3)c1[C@H](OC(C)(C)C)C(=O)O` [compound 1017], the pEC50 is 7.68. The same measure for `Cc1nc(C(=O)Nc2ccc(F)cn2)c(C)c(-c2ccc3c(c2)NCCO3)c1[C@H](OC(C)(C)C)C(=O)O` [compound 1290]: 7.96; for `Cc1ccc(-c2nc(C)c([C@H](OC(C)(C)C)C(=O)O)c(-c3ccc4c5c(ccnc35)CCO4)c2C)cc1C` [compound 1116]: 7.89. The same measure for `Cc1nc(C(=O)NC2CCC(C(C)(C)C)CC2)c(C)c(-c2ccc(Cl)cc2)c1[C@H](OC(C)(C)C)C(=O)O` (some centres unmarked) [compound 1161]: 7.57; for `COc1ccc2nc(-c3nc(C)c([C@H](OC(C)(C)C)C(=O)O)c(-c4ccc(Cl)cc4)c3C)n(C)c2c1` [compound 1439]: 8.40; for `Cc1c(-c2ccc3c(c2)CCCO3)c([C@H](OC(C)(C)C)C(=O)O)c(C)n2cc(CC(C)(C)C)nc12` [compound 4002]: 7.14.

In the case of `Cc1nc(NC(=O)C(C)(C)C)c(C)c(-c2ccc3c(c2Cl)NCCO3)c1[C@H](OC(C)(C)C)C(=O)O` [compound 1242], the pEC50 is 6.66. The same measure for `Cc1n[nH]c(C)c1-c1cccc(-c2nc(C)c([C@H](OC(C)(C)C)C(=O)O)c(-c3ccc4c(c3)CCCO4)c2C)c1` [compound 1018]: 6.74. For the molecule `Cc1nc(-c2cccc(Br)c2)c(C)c(-c2ccc3c(c2)CCCO3)c1[C@H](OC(C)(C)C)C(=O)O` [compound 1005], the pEC50 is 7.72. The same measure for `CC[C@@H](C)NC(=O)c1nc(C)c([C@H](OC(C)(C)C)C(=O)O)c(-c2ccc(Cl)cc2)c1C` [compound 1160]: 7.80.

In the case of `Cc1nc(C(=O)NC2CCC(C)(C)CC2)c(C)c(-c2ccc(Cl)cc2F)c1[C@H](OC(C)(C)C)C(=O)O` [compound 1451], the pEC50 is 8.77. The same measure for `Cc1ccc(-c2nc(C)c([C@H](OC(C)(C)C)C(=O)O)c(-c3ccc4c(c3C)NCCO4)c2C)cc1C` [compound 1113]: 8.11; for `COC(=O)c1cnn2c(C)c([C@H](OC(C)(C)C)C(=O)O)c(-c3ccc4c(c3)CCCO4)c(C)c12` [compound 6001]: 7.05; for `COc1cc(C(=O)Nc2nc(C)c([C@H](OC(C)(C)C)C(=O)O)c(-c3ccc(Cl)cc3F)c2C)nc2ccccc12` [compound 1453]: 8.68. For `[2H]C1([2H])C([2H])([2H])C([2H])([2H])C([2H])(NC(=O)c2nc(C)c([C@H](OC(C)(C)C)C(=O)O)c(-c3ccc(Cl)cc3)c2C)C([2H])([2H])C1([2H])[2H]` [compound 1443], the pEC50 is 8.15. For `COc1cc(C(=O)Nc2nc(C)c([C@H](OC(C)(C)C)C(=O)O)c(-c3ccc(Cl)cc3)c2C)nc2ccccc12` [compound 1461] the value was 8.60; for `Cc1nc(C(=O)NC2CCCCCC2)c(C)c(-c2ccc(Cl)cc2)c1[C@H](OC(C)(C)C)C(=O)O` [compound 1147], 8.16.

On to `Cc1nc(C(=O)Nc2ccc3ncccc3c2)c(C)c(-c2ccc(Cl)cc2)c1[C@H](OC(C)(C)C)C(=O)O` [compound 1275], for which the pEC50 was 8.35.

`Cc1nc(-c2nc3ccccc3n2CC2CC2)c(C)c(-c2ccc(Cl)cc2)c1[C@H](OC(C)(C)C)C(=O)O` [compound 1449]: the pEC50 was 8.74. For `Cc1nc(C(=O)N[C@H]2CC[C@H](C)CC2)c(C)c(-c2ccc(Cl)cc2)c1[C@H](OC1(C)CCC1)C(=O)O` [compound 3009], the pEC50 is 7.62. For `Cc1nc(C(=O)N[C@H]2CC[C@H](C)CC2)c(C)c(-c2ccc3c(c2)CCCO3)c1[C@H](OC(C)(C)C)C(=O)O` [compound 1127] the value was 8.35. The same measure for `Cc1nc(C(=O)Nc2ccc(C(N)=O)nc2)c(C)c(-c2ccc(Cl)cc2)c1[C@H](OC(C)(C)C)C(=O)O` [compound 1283]: 6.85; for `CCCn1cc(-c2cccc(-c3nc(C)c([C@H](OC(C)(C)C)C(=O)O)c(-c4ccc5c(c4)CCCO5)c3C)c2)cn1` [compound 1011]: 7.23; for `Cc1nc(C(=O)N[C@@H](C)C2CCCCC2)c(C)c(-c2ccc(Cl)cc2)c1[C@H](OC(C)(C)C)C(=O)O` [compound 1152]: 7.82. The same measure for `Cc1nc(C(=O)NCc2ccnc3ccccc23)c(C)c(-c2ccc(Cl)cc2)c1[C@H](OC(C)(C)C)C(=O)O` [compound 1442]: 7.80.

On to `Cc1nc(-c2nc3ccc(Cl)cc3[nH]2)c(C)c(-c2ccc(Br)cc2)c1[C@H](OC(C)(C)C)C(=O)O` [compound 1447], for which the pEC50 was 9.42. As for `Cc1nc(C(=O)NC2CCCCCC2)c(C)c(-c2ccc3c(c2C)NCCO3)c1[C@H](OC(C)(C)C)C(=O)O` [compound 1192], the pEC50 is 8.08.
